Article PMC9154803, “Synthesis, X-ray diffraction analysis, quantum chemical studies and α-amylase inhibition of probenecid derived S-alkylphthalimide-oxadiazole-benzenesulfonamide hybrids” (Journal of Enzyme Inhibition and Medicinal Chemistry, 2022)
Values after ≈ are worked out from the molar mass of the structure shown.

Molecular target: T1, α-amylase
T1 construct: gene AMY2
Experiment: DNS starch hydrolysis assay, absorbance at […] nm
Assay type: biochemical

SMILES | IC50 value [µg/mL]
CCCN(CCC)S(=O)(=O)c1ccc(-c2nnc(SCCCN3C(=O)c4ccccc4C3=O)o2)cc1 [compound 1, 4–(5-(3–(1,3-Dioxoisoindolin-2-yl)propylthio)-1,3,4-oxadiazol-2-yl)-N,N-dipropylbenzenesulfonamide] | 92.23 ± 0.23 (≈ 174 µM)
CCCN(CCC)S(=O)(=O)c1ccc(-c2nnc(SCCCCN3C(=O)c4ccccc4C3=O)o2)cc1 [compound 2, 4–(5-(4–(1,3-Dioxoisoindolin-2-yl)butylthio)-1,3,4-oxadiazol-2-yl)-N,N-dipropylbenzenesulfonamide] | 76.92 ± 0.19 (≈ 142 µM)
